How the values were obtained:
[1] = Partition coefficient (logP); type: physicochemical; conditions: octanol/water
[2] = biological target: T1, Inhibitor of nuclear factor kappa-B kinase subunit beta (Homo sapiens) (UniProt O14920); test: In vitro percent inhibition of I-kappa-B-kinase beta at 10 uM concentration of compound dissolved in 100% DMSO using 5''-[gamma-33P]-triphosphate
T1 sequence (whole entry): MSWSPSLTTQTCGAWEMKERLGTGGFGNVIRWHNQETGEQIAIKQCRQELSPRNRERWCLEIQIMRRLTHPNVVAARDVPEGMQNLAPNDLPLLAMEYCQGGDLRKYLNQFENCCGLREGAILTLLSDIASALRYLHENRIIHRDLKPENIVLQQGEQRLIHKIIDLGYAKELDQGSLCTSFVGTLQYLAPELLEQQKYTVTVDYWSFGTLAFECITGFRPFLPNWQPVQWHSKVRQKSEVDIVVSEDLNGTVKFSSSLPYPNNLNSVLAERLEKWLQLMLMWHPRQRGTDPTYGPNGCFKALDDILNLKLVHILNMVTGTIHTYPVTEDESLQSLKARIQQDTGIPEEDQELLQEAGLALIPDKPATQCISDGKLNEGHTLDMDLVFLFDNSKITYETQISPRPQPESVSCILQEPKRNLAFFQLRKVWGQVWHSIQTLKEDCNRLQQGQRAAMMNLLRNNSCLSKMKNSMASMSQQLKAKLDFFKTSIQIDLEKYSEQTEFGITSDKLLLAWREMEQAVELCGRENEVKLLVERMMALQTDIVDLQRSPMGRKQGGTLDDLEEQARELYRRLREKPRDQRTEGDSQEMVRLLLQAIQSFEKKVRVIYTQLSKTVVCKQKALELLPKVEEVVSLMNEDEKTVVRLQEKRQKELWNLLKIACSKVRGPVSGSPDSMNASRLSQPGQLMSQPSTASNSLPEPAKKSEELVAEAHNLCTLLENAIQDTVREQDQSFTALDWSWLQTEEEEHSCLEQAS

[3] = In vitro percent inhibition of Cyclin-dependent kinase 2-cyclin A at 10 uM concentration of compound dissolved in 100% DMSO using 5''-[gamma-33P]-triphosphate
[4] = biological target: Casein kinase I isoform alpha (Homo sapiens) (UniProt P48729); test: In vitro percent inhibition of Casein kinase 1 alpha at 10 uM concentration of compound dissolved in 100% DMSO using 5''-[gamma-33P]-triphosphate
[5] = biological target: Hepatocyte growth factor receptor (Homo sapiens) (UniProt P08581); test: In vitro percent inhibition of Met proto-oncogene tyrosine kinase at 10 uM concentration of compound dissolved in 100% DMSO using 5''-[gamma-33P]-triphosphate
[6] = In vitro percent inhibition of Ribosomal S6 kinase 1 at 10 uM concentration of compound dissolved in 100% DMSO using 5''-[gamma-33P]-triphosphate
[7] = biological target: Mitogen-activated protein kinase 3 (Homo sapiens) (UniProt P27361); test: In vitro percent inhibition of Mitogen-activated protein kinase 3 at 10 uM concentration of compound dissolved in 100% DMSO using 5''-[gamma-33P]-triphosphate
[8] = biological target: Tyrosine-protein kinase Lck (Homo sapiens) (UniProt P06239); test: In vitro percent inhibition of p56 Lck tyrosine kinase at 10 uM concentration of compound dissolved in 100% DMSO using 5''-[gamma-33P]-triphosphate
[9] = biological target: Epidermal growth factor receptor (Homo sapiens) (UniProt P00533); conditions: 10 uM
[10] = biological target: Proto-oncogene tyrosine-protein kinase Src (Homo sapiens) (UniProt P12931); test: In vitro percent inhibition of c-Src tyrosine kinase at 10 uM concentration of compound dissolved in 100% DMSO using 5''-[gamma-33P]-triphosphate
[11] = biological target: Rho-associated protein kinase 2 (Homo sapiens) (UniProt O75116); test: In vitro percent inhibition of Protein kinase ROCK2 at 10 uM concentration of compound dissolved in 100% DMSO using 5''-[gamma-33P]-triphosphate
[12] = biological target: RAF proto-oncogene serine/threonine-protein kinase (Homo sapiens) (UniProt P04049); test: In vitro percent inhibition of RAF proto-oncogene serine/threonine-protein kinase at 10 uM concentration of compound dissolved in 100% DMSO using 5''-[gamma-33P]-triphosphate
[13] = biological target: Glycogen synthase kinase-3 beta (Homo sapiens) (UniProt P49841); test: In vitro percent inhibition of Glycogen synthase kinase 3 beta at 10 uM concentration of compound dissolved in 100% DMSO using 5''-[gamma-33P]-triphosphate
[14] = biological target: Platelet-derived growth factor receptor beta (Homo sapiens) (UniProt P09619); test: In vitro percent inhibition of Platelet-derived growth factor receptor, beta polypeptide at 10 uM concentration of compound dissolved in 100% DMSO using 5''-[gamma-33P]-triphosphate
[15] = biological target: Ribosomal protein S6 kinase (P70S6K) (Homo sapiens) (UniProt Q9UBS0+P23443); test: In vitro percent inhibition of Ribosomal protein S6 kinase at 10 uM concentration of compound dissolved in 100% DMSO using 5''-[gamma-33P]-triphosphate; type: protein-complex assay
[16] = biological target: Mast/stem cell growth factor receptor Kit (Homo sapiens) (UniProt P10721); test: In vitro percent inhibition of v-kit Hardy-Zuckerman 4 feline sarcoma viral oncogene homolog at 10 uM concentration of compound dissolved in 100% DMSO using 5''-[gamma-33P]-triphosphate
[17] = biological target: Mitogen-activated protein kinase 8 (Homo sapiens) (UniProt P45983); test: In vitro percent inhibition of c-Jun N-terminal kinase 1-alpha 1 at 10 uM concentration of compound dissolved in 100% DMSO using 5''-[gamma-33P]-triphosphate
[18] = biological target: RAC-alpha serine/threonine-protein kinase (Homo sapiens) (UniProt P31749); test: In vitro percent inhibition of Protein kinase B, alpha at 10 uM concentration of compound dissolved in 100% DMSO using 5''-[gamma-33P]-triphosphate
[19] = biological target: T2, Tyrosine-protein kinase transforming protein Abl (Abelson murine leukemia virus) (UniProt P00521); test: In vitro percent inhibition of v-Abl tyrosine kinase at 10 uM concentration of compound dissolved in 100% DMSO using 5''-[gamma-33P]-triphosphate
T2 sequence (whole entry): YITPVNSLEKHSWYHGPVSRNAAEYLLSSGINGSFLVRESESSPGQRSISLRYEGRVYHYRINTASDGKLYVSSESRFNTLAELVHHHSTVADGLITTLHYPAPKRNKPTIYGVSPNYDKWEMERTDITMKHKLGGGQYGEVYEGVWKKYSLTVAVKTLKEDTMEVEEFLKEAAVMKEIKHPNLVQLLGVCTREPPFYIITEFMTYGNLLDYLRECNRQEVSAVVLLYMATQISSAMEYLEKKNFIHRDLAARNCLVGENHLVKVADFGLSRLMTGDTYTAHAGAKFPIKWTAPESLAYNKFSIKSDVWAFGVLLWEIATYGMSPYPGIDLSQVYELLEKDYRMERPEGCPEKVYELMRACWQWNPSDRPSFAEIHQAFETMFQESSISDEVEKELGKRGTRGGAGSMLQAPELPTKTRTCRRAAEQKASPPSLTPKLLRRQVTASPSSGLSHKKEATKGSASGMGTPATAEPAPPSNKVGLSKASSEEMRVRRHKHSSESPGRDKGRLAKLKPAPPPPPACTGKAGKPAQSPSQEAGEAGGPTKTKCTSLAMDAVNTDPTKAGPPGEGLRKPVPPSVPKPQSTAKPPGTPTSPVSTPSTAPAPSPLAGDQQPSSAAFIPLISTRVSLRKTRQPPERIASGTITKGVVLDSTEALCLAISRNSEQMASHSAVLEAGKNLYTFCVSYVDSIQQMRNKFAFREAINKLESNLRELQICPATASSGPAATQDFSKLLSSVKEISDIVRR

Glycogen synthase kinase-3 beta (Homo sapiens), sequence (P49841 whole entry, looked up): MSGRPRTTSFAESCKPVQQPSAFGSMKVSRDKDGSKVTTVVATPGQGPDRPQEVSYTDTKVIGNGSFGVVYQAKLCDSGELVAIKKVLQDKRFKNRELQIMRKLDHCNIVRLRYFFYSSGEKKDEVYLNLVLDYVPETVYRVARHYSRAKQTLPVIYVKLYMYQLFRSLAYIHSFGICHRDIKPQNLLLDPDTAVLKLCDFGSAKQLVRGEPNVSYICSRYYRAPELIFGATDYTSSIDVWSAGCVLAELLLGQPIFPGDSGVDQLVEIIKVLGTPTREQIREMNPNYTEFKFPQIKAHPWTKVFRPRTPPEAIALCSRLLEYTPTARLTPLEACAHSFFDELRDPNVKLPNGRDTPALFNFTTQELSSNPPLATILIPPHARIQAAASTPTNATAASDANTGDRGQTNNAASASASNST
Mast/stem cell growth factor receptor Kit (Homo sapiens), sequence (P10721 whole entry): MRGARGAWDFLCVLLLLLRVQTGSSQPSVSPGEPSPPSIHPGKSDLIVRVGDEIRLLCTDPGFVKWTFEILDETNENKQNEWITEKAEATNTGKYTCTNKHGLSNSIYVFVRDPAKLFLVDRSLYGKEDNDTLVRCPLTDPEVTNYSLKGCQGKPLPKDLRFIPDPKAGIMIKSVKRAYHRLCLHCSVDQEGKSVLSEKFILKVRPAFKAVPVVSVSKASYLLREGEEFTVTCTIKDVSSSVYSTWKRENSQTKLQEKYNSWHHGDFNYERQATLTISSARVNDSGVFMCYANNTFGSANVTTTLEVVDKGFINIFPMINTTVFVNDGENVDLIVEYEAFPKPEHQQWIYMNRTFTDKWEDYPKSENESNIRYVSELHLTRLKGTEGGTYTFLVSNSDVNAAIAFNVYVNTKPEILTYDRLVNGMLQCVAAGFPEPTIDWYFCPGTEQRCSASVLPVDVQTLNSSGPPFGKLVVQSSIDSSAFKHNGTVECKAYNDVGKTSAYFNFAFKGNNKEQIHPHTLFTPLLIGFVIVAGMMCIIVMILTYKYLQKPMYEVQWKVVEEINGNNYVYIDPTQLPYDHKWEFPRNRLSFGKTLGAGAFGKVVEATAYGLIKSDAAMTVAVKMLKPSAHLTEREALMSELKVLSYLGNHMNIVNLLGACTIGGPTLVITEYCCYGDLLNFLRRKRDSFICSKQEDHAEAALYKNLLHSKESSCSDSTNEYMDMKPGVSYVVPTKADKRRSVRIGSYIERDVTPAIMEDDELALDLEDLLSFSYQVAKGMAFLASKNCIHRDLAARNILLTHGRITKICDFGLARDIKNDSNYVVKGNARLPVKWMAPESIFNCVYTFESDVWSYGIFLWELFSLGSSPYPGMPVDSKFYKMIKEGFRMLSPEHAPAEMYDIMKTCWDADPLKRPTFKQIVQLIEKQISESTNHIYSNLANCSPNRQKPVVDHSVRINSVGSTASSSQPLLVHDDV
Epidermal growth factor receptor (Homo sapiens), sequence (P00533 whole entry): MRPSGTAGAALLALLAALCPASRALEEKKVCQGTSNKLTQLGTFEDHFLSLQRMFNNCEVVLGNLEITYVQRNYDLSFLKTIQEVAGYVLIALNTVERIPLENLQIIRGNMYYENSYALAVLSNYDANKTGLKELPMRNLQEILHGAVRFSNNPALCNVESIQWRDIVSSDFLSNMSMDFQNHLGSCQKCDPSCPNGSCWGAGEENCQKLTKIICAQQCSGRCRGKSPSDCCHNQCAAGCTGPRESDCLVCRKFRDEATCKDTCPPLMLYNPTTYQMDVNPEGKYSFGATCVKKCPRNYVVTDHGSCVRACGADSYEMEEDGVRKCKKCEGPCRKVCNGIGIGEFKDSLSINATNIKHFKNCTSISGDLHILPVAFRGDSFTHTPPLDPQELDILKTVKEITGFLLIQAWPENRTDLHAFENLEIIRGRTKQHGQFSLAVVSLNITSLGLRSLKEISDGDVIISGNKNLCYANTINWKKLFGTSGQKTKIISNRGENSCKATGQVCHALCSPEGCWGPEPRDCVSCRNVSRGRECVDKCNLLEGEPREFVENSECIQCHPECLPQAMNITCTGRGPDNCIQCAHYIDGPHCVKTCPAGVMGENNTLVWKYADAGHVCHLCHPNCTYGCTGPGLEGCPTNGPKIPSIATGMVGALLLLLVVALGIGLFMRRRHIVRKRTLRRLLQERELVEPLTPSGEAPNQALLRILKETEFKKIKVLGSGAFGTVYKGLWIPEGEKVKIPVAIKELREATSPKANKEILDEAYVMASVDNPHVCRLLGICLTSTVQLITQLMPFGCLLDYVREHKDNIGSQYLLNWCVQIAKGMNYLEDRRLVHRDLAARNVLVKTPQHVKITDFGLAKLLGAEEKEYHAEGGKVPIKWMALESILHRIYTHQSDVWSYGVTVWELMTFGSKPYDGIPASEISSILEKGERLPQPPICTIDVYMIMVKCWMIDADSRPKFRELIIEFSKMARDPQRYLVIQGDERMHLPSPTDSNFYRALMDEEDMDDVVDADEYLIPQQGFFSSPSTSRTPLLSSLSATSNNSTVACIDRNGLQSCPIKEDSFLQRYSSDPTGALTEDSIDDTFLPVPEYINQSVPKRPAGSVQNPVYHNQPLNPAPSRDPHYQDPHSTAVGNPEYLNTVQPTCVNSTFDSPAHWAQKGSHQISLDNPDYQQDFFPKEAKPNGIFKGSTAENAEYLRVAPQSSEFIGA
Tyrosine-protein kinase Lck (Homo sapiens), sequence (P06239 2-509 limits assumed): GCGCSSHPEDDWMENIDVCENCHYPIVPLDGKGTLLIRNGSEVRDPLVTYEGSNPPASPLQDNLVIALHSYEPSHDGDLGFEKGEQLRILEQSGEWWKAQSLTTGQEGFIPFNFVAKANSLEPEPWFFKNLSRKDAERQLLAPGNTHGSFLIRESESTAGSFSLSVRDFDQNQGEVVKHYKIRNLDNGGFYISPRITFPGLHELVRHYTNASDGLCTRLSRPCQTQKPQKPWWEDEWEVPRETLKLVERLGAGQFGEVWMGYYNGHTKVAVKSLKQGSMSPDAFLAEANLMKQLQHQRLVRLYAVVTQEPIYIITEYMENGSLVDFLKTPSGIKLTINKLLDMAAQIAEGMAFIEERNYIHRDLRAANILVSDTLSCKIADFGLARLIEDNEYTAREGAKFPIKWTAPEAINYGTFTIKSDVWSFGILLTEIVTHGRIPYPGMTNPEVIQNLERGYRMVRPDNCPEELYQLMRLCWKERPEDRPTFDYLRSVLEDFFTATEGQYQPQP
Platelet-derived growth factor receptor beta (Homo sapiens), sequence (P09619 whole entry): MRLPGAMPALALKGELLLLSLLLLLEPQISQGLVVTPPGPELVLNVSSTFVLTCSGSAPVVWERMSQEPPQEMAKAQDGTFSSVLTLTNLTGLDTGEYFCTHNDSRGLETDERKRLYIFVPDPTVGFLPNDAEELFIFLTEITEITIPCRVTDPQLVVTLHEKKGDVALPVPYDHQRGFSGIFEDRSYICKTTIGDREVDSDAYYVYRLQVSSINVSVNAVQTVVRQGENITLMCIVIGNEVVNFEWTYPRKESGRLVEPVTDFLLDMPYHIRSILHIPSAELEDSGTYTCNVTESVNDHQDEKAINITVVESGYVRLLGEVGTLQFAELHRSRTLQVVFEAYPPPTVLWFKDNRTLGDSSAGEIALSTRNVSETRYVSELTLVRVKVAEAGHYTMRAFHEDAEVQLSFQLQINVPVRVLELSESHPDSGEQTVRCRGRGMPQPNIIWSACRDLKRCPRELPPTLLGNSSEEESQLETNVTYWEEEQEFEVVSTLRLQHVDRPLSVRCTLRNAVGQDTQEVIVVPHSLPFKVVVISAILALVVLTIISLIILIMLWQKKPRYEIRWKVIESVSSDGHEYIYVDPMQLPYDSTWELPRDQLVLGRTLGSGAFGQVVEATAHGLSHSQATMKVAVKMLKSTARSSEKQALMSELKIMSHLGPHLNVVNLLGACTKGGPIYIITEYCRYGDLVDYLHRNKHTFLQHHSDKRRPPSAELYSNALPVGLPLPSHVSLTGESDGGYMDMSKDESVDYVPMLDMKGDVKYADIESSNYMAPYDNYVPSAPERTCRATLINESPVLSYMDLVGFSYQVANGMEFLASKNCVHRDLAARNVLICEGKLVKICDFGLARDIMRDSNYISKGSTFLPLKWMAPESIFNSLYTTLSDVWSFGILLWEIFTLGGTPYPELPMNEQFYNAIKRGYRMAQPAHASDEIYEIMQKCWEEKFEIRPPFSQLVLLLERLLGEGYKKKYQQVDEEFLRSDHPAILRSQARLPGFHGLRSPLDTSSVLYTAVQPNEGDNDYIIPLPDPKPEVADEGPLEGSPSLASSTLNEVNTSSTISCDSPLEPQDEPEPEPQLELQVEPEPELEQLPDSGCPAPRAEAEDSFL
Casein kinase I isoform alpha (Homo sapiens), sequence (P48729 2-337 limits assumed): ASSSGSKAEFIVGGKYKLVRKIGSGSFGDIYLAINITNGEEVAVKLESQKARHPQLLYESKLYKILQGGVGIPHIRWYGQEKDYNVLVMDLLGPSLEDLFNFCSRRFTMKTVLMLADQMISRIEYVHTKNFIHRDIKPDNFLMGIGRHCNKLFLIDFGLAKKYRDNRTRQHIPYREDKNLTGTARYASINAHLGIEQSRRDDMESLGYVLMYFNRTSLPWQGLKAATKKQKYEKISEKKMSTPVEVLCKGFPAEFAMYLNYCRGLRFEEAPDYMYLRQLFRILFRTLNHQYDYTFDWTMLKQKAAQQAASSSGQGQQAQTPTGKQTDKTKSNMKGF
Mitogen-activated protein kinase 3 (Homo sapiens), sequence (P27361 whole entry): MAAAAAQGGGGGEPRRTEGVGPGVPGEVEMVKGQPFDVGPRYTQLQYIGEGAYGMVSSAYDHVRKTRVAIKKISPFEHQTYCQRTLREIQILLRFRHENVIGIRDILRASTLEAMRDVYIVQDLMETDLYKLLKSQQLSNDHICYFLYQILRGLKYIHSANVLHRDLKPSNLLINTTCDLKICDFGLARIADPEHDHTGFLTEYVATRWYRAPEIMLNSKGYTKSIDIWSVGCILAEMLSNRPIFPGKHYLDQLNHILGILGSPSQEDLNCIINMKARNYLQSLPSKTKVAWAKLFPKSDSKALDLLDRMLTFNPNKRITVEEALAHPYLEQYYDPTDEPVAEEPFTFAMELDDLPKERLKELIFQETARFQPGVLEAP

SMILES	logP [1]	inhibition [2]	inhibition [3]	inhibition [4]	inhibition [5]	inhibition [6]	inhibition [7]	inhibition [8]	inhibition [9]	inhibition [10]	inhibition [11]	inhibition [12]	inhibition [13]	inhibition [14]	inhibition [15]	inhibition [16]	inhibition [17]	inhibition [18]	inhibition [19]
COc1cc2c(c(OC)c1OC)-c1ccc(OC)c(=O)cc1[C@@H](NC(C)=O)CC2 [COLCHICINE]	0.92	–	–	–	–	–	–	–	–	–	–	–	–	–	–	–	–	–	–
O=C(O)CCCc1ccc(-c2nc3cc4ccccc4cc3nc2-c2ccc(CCCC(=O)O)s2)s1	4.77	43%	7%	24%	7%	20%	6%	9%	32%	35%	0%	12%	13%	37%	18%	33%	–	–	–
CCC(=O)c1ccccc1 [PROPIOPHENONE]	2.2	–	–	–	–	–	–	–	–	–	–	–	–	–	–	–	–	–	–
COC(=O)CCc1ccc(-c2nc3cc4ccccc4cc3nc2-c2ccc(CCC(=O)OC)s2)s1	5	31%	12%	14%	39%	31%	13%	5%	32%	19%	5%	18%	7%	13%	11%	12%	-10%	14%	-8%
CCCCC(=O)c1ccccc1 [VALEROPHENONE]	3.26	–	–	–	–	–	–	–	–	–	–	–	–	–	–	–	–	–	–
Cn1c(=O)c2[nH]cnc2n(C)c1=O [THEOPHYLLINE]	-0.05	–	–	–	–	–	–	–	–	–	–	–	–	–	–	–	–	–	–
O=C(O)C1COc2cc3nc(-c4cccs4)c(-c4cccs4)nc3cc2O1 (stereo not drawn)	4.7	14%	10%	15%	-2%	14%	39%	-2%	39%	19%	-1%	12%	33%	5%	-1%	4%	–	4%	-6%
O=C(O)c1ccc(-c2nc3cc4ccccc4cc3nc2-c2ccc(C(=O)O)s2)s1	5.03	29%	3%	7%	-4%	31%	49%	–	49%	20%	19%	16%	51%	23%	14%	12%	–	12%	–

From ChEMBL document CHEMBL1140238, “Synthesis of selective SRPK-1 inhibitors: novel tricyclic quinoxaline derivatives” (Bioorg Med Chem Lett, 2005)
